Reference: paper PMC7413254 (Nature Communications, 2020)

Key:
PfCRT = test: Influx of VF-6 via PfCRT into the oocyte, solutes tested as potential co-substrates; type: cell-based, Plasmodium falciparum; set-up: key: X: Compounds that have been tested as potential co-substrates but are not required for influx of VF-6 via PfCRT into the oocyte; settings: X marks the solute
PfCRT^Dd2 = PfCRT^Dd2 (Plasmodium falciparum, UniProt Q9N623, A220S/I356T/K76T/M74I/N326S/N75E/Q271E/R371I); test: [3H]CQ uptake into Xenopus oocytes, cis-inhibition by unlabelled solute; type: cell-based; settings: for Uptake of [3H]CQ (% PfCRTDd2 control), cis-inhibition / PfCRT-mediated [3H]CQ transport, cis-inhibition (% PfCRTDd2 control): PfCRTDd2 oocytes; for Uptake of [3H]CQ (% PfCRTDd2 control), cis-inhibition / Uptake of [3H]CQ (% PfCRTDd2 control), cis-inhibition, PfCRTDd2: total [3H]CQ transport; for Uptake of [3H]CQ (% PfCRTDd2 control), cis-inhibition: normalised to the oocyte type control; for PfCRT-mediated [3H]CQ transport, cis-inhibition (% PfCRTDd2 control): background [3H]CQ accumulation subtracted, normalised to oocyte type control; for Uptake of [3H]CQ (% PfCRTDd2 control), cis-inhibition, PfCRTDd2: mean ± SEM, SEM
Sequence of PfCRT^Dd2 (Q9N623 whole entry A220S/I356T/K76T/M74I/N326S/N75E/Q271E/R371I): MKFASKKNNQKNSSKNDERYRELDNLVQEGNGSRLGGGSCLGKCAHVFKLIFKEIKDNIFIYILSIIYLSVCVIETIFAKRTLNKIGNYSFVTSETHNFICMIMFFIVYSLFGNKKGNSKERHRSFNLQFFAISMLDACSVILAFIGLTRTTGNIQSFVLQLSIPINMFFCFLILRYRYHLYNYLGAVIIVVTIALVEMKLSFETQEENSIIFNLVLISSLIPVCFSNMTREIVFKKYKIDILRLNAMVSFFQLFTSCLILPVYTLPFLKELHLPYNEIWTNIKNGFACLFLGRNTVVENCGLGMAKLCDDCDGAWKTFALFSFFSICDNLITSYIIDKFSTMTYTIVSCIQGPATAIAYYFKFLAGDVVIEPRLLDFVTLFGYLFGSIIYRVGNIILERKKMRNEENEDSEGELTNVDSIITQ
Outline: (§1)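 Each treatment used ten oocytes, repeated in at least four experiments on different days with oocytes from different frogs. Conditions: ND96 pH 5.5, 27.5 °C, 1.5 h; read-out by scintillation counting.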

PfCRT^Ecu1110 = PfCRT^Ecu1110 (Plasmodium falciparum, UniProt Q9N623, A220S/I356L/K76T/N326D); test: as above; type: cell-based; settings: for Uptake of [3H]CQ (% PfCRTEcu1110 control), cis-inhibition / PfCRT-mediated [3H]CQ transport, cis-inhibition (% PfCRTEcu1110 control): PfCRTEcu1110 oocytes; for Uptake of [3H]CQ (% PfCRTEcu1110 control), cis-inhibition / Uptake of [3H]CQ (% PfCRTDd2 control), cis-inhibition, PfCRTEcu1110: total [3H]CQ transport; for Uptake of [3H]CQ (% PfCRTEcu1110 control), cis-inhibition: normalised to the oocyte type control; for PfCRT-mediated [3H]CQ transport, cis-inhibition (% PfCRTEcu1110 control): background [3H]CQ accumulation subtracted, normalised to oocyte type control; for [3H]CQ transport (% PfCRTEcu1110 control), cis-inhibition, PfCRTEcu1110: PfCRT-mediated component (background subtracted), sheet title says normalised to PfCRTDd2 control; for [3H]CQ transport (% PfCRTEcu1110 control), cis-inhibition, PfCRTEcu1110 / Uptake of [3H]CQ (% PfCRTDd2 control), cis-inhibition, PfCRTEcu1110: mean ± SEM, SEM
Sequence of PfCRT^Ecu1110 (Q9N623 whole entry A220S/I356L/K76T/N326D): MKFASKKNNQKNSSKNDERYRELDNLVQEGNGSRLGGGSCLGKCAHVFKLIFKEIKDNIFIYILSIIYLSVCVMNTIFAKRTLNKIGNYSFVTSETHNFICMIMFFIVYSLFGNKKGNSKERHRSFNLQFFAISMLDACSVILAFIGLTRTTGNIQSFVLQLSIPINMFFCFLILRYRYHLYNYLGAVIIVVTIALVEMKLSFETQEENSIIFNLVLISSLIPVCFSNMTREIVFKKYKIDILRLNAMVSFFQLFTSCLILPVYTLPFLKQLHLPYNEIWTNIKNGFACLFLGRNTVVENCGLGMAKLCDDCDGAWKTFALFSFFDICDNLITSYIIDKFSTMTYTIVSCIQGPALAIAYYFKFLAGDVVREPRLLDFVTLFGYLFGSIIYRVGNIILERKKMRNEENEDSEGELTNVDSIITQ
Outline: as §1

PfCRT^3D7 = PfCRT^3D7 (Plasmodium falciparum, UniProt Q8IBZ9); test: cell-based; type: cell-based; settings: total [3H]CQ transport; for Uptake of [3H]CQ (% PfCRT3D7 control), cis-inhibition: PfCRT3D7 oocytes, normalised to the oocyte type control; for Uptake of [3H]CQ (% PfCRTDd2 control), cis-inhibition, PfCRT3D7: mean ± SEM, SEM
Sequence of PfCRT^3D7 (Q8IBZ9 59-398): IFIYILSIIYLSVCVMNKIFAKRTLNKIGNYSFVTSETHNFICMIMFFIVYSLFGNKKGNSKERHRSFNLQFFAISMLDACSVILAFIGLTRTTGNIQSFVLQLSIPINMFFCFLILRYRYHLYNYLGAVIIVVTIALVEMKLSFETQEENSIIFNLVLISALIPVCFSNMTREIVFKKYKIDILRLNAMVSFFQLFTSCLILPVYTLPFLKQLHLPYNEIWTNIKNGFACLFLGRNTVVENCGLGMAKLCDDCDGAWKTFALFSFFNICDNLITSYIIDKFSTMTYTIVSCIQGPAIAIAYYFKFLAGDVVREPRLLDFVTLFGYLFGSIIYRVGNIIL
Outline: as §1

non-expressing oocytes = test: cells; type: cell-based, Xenopus laevis; settings: total [3H]CQ transport; for Uptake of [3H]CQ (% non-expressing oocyte control), cis-inhibition: non-expressing oocytes, normalised to the oocyte type control; for Uptake of [3H]CQ (% PfCRTDd2 control), cis-inhibition, non-expressing oocytes: mean ± SEM, SEM
Outline: as §1

NC(=O)C[C@H](N)C(=O)O [L-asparagine]
Compounds that have been tested as potential co-substrates but are not required for influx of VF-6 via PfCRT into the oocyte (PfCRT): X | Uptake of [3H]CQ (% PfCRTDd2 control), cis-inhibition (PfCRT^Dd2; [test solute] = 0.5 mM): 100 ± 5.3 % PfCRTDd2 control | Uptake of [3H]CQ (% PfCRTDd2 control), cis-inhibition (PfCRT^Dd2; [test solute] = 2 mM): 100 ± 8.5 % PfCRTDd2 control | PfCRT-mediated [3H]CQ transport, cis-inhibition (% PfCRTDd2 control) (PfCRT^Dd2; [test solute] = 0.5 mM): 98 ± 4.1 % PfCRTDd2 control | PfCRT-mediated [3H]CQ transport, cis-inhibition (% PfCRTDd2 control) (PfCRT^Dd2; [test solute] = 1 mM): 99 ± 6.2 % PfCRTDd2 control | PfCRT-mediated [3H]CQ transport, cis-inhibition (% PfCRTDd2 control) (PfCRT^Dd2; [test solute] = 2 mM): 95 ± 3.5 % PfCRTDd2 control | Uptake of [3H]CQ (% PfCRTDd2 control), cis-inhibition, PfCRTDd2 (PfCRT^Dd2; [test solute] = 0.5 mM): 100 ± 5.3 % PfCRTDd2 control | Uptake of [3H]CQ (% PfCRTDd2 control), cis-inhibition, PfCRTDd2 (PfCRT^Dd2; [test solute] = 1 mM): 101 ± 8.1 % PfCRTDd2 control | Uptake of [3H]CQ (% PfCRTDd2 control), cis-inhibition, PfCRTDd2 (PfCRT^Dd2; [test solute] = 2 mM): 100 ± 8.5 % PfCRTDd2 control | Uptake of [3H]CQ (% PfCRTEcu1110 control), cis-inhibition (PfCRT^Ecu1110; [test solute] = 0.5 mM): 96 ± 6.6 % PfCRTEcu1110 control | Uptake of [3H]CQ (% PfCRTEcu1110 control), cis-inhibition (PfCRT^Ecu1110; [test solute] = 1 mM): 88 ± 6.1 % PfCRTEcu1110 control | Uptake of [3H]CQ (% PfCRTEcu1110 control), cis-inhibition (PfCRT^Ecu1110; [test solute] = 2 mM): 102 ± 6.2 % PfCRTEcu1110 control | PfCRT-mediated [3H]CQ transport, cis-inhibition (% PfCRTEcu1110 control) (PfCRT^Ecu1110; [test solute] = 0.5 mM): 94 ± 3.6 % PfCRTEcu1110 control | PfCRT-mediated [3H]CQ transport, cis-inhibition (% PfCRTEcu1110 control) (PfCRT^Ecu1110; [test solute] = 1 mM): 84 ± 4.9 % PfCRTEcu1110 control | PfCRT-mediated [3H]CQ transport, cis-inhibition (% PfCRTEcu1110 control) (PfCRT^Ecu1110; [test solute] = 2 mM): 100 ± 5.1 % PfCRTEcu1110 control | [3H]CQ transport (% PfCRTEcu1110 control), cis-inhibition, PfCRTEcu1110 (PfCRT^Ecu1110; [test solute] = 1 mM): 25 ± 0.6 % PfCRTEcu1110 control | [3H]CQ transport (% PfCRTEcu1110 control), cis-inhibition, PfCRTEcu1110 (PfCRT^Ecu1110; [test solute] = 2 mM): 30 ± 0.2 % PfCRTEcu1110 control | Uptake of [3H]CQ (% PfCRTDd2 control), cis-inhibition, PfCRTEcu1110 (PfCRT^Ecu1110; [test solute] = 0.5 mM): 31 ± 1.5 % PfCRTDd2 control | Uptake of [3H]CQ (% PfCRTDd2 control), cis-inhibition, PfCRTEcu1110 (PfCRT^Ecu1110; [test solute] = 1 mM): 28 ± 1.8 % PfCRTDd2 control | Uptake of [3H]CQ (% PfCRTDd2 control), cis-inhibition, PfCRTEcu1110 (PfCRT^Ecu1110; [test solute] = 2 mM): 33 ± 2.2 % PfCRTDd2 control | Uptake of [3H]CQ (% PfCRT3D7 control), cis-inhibition (PfCRT^3D7; [test solute] = 0.5 mM): 98 ± 2.4 % PfCRT3D7 control | Uptake of [3H]CQ (% PfCRT3D7 control), cis-inhibition (PfCRT^3D7; [test solute] = 1 mM): 98 ± 3.5 % PfCRT3D7 control | Uptake of [3H]CQ (% PfCRT3D7 control), cis-inhibition (PfCRT^3D7; [test solute] = 2 mM): 101 ± 4.7 % PfCRT3D7 control | Uptake of [3H]CQ (% PfCRTDd2 control), cis-inhibition, PfCRT3D7 (PfCRT^3D7; [test solute] = 0.5 mM): 2.6 ± 0.04 % PfCRTDd2 control | Uptake of [3H]CQ (% PfCRTDd2 control), cis-inhibition, PfCRT3D7 (PfCRT^3D7; [test solute] = 1 mM): 2.2 ± 0.03 % PfCRTDd2 control | Uptake of [3H]CQ (% PfCRTDd2 control), cis-inhibition, PfCRT3D7 (PfCRT^3D7; [test solute] = 2 mM): 3.4 ± 0.07 % PfCRTDd2 control | Uptake of [3H]CQ (% non-expressing oocyte control), cis-inhibition (non-expressing oocytes; [test solute] = 0.5 mM): 100 ± 5.6 % non-expressing oocyte control | Uptake of [3H]CQ (% non-expressing oocyte control), cis-inhibition (non-expressing oocytes; [test solute] = 1 mM): 98 ± 5.3 % non-expressing oocyte control | Uptake of [3H]CQ (% non-expressing oocyte control), cis-inhibition (non-expressing oocytes; [test solute] = 2 mM): 100 ± 4.6 % non-expressing oocyte control | Uptake of [3H]CQ (% PfCRTDd2 control), cis-inhibition, non-expressing oocytes (non-expressing oocytes; [test solute] = 0.5 mM): 3.9 ± 0.02 % PfCRTDd2 control | Uptake of [3H]CQ (% PfCRTDd2 control), cis-inhibition, non-expressing oocytes (non-expressing oocytes; [test solute] = 1 mM): 2.8 ± 0.04 % PfCRTDd2 control | Uptake of [3H]CQ (% PfCRTDd2 control), cis-inhibition, non-expressing oocytes (non-expressing oocytes; [test solute] = 2 mM): 2.5 ± 0.05 % PfCRTDd2 control
